± gives the expanded uncertainty stated by the source.

For this data set the following is noted: Crystal; visual observation.

Consider `COc1ccc2[nH]c([S+]([O-])Cc3ncc(C)c(OC)c3C)nc2c1` (stereo unspecified) [Omeprazole], for which the Normal melting temperature was 156.00 ± 2.1 °C.
